This note sets out measurements from ChEMBL document CHEMBL1201862, “PubChem BioAssay data set” (2004).

Assay in all cases: NCI-60 cell line screen, 48 h
The subject of assay [1] is M14.
The subject of assay [2] is HCT-116.
Assay [3] has as its system A498.
Assay [4] concerns MDA-N.
The test system of assay [5] is 786-0.
The subject of assay [6] is K562.
Assay [7] concerns CAKI-1.
Assay [8] deals with Malme-3M.
For assay [9], the system named is SK-OV-3.
In assay [10] the test system is SN12C.
The subject of assay [11] is HCC 2998.
The test system of assay [12] is EKVX.
Assay [13] relates to BT-549.
Assay [14] has as its system UO-31.
For assay [15], the system named is SF-539.
Assay [16] concerns MDA-MB-231.
The subject of assay [17] is PC-3.

Molecules are shown by their SMILES.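 Test compounds were applied to cells in 96-well plates for 48 hours at 5 doses. At the GI50, growth is halved.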 Activity calls are given as the source filed them. Rule as the data show it: active = GI50 up to about 1.1 µM and inactive = higher. A value given as a limit tells only on which side of the number the result lay.

For the compound `CN(C)CCNc1ccc2c(=O)n(CCN(C)C)c(=O)n3c4ccc(O)cc4c(=O)c1c23`, the GI50 in [1] is < 0.034 µM (active); in assay [2] it was < 0.01 µM (active); in assay [3] it was 0.0611 µM (active); in assay [4] it was 0.0356 µM (active); in assay [5], < 0.01 µM (active); in [6], < 0.01 µM (active). Also, the GI50 in assay [7] is < 0.01 µM (active); in assay [8] it was 0.0569 µM (active); in [9], < 0.022 µM (active); in assay [10] it was 0.0103 µM (active); in assay [11], < 0.01 µM (active); in assay [12], 0.183 µM (active). The GI50 was 0.292 µM (active) in [13]; < 0.0148 µM (active) in assay [14]; < 0.01 µM (active) in assay [15]; < 0.0395 µM (active) in assay [16]; < 0.0491 µM (active) in [17].

For `Cc1cccc2nc3cccc(C(=O)NCCC[N+](C)(CCCNC(=O)c4cccc5nc6cccc(C)c6nc45)Cc4c([N+](=O)[O-])ncn4C)c3nc12`, the GI50 in [1] is 9.68 µM (inactive); in assay [2], 1.4 µM (inactive); in assay [3] it was 0.979 µM (active); in [4] it was 0.293 µM (active); in assay [5], 4.07 µM (inactive); in [6], 25.4 µM (inactive). Further, the GI50 in assay [7] was 0.659 µM (active); in assay [8] it was 3.05 µM (inactive); in assay [9], 44.8 µM (inactive); in assay [10], 0.378 µM (active); in [11] it was 1.67 µM (inactive); in [12], 1.79 µM (inactive). In addition, the GI50 in assay [13] is 41.7 µM (inactive); in assay [14], 0.726 µM (active); in assay [15], 0.41 µM (active); in assay [16], 38.3 µM (inactive); in [17], 1.46 µM (inactive).

Consider `COc1cc(OCc2ccc3nc(OC)c(OC)nc3c2)cc(OC)c1OC`, for which the GI50 in assay [1], in assay [2], in assay [3], in [4], in assay [5] and in assay [6] was > 10 µM (inactive) in each case. Moreover, the GI50 in assay [7], in assay [8], in [9], in assay [10], in [11] and in [12] was > 10 µM (inactive) throughout. In addition, the GI50 in [13] is > 3.72 µM (inactive); in assay [14], > 10 µM (inactive); in assay [15], > 10 µM (inactive); in [16], > 10 µM (inactive); in [17], > 3.08 µM (inactive).

As for `O=C1C2CC=CCC2C(=O)N1n1c(-c2ccccc2)n[nH]c1=O` (centres undefined), the GI50 in [1], in assay [2], in assay [3], in assay [4], in assay [5] and in [6] was > 100 µM (inactive) throughout. The GI50 in assay [7], in [8], in assay [9], in assay [10], in assay [11] and in assay [12] was > 100 µM (inactive) throughout. Also, the GI50 in assay [13], in assay [14], in assay [15], in assay [16] and in assay [17] was > 100 µM (inactive) throughout.

For `CCOc1snc(C(Cl)(Cl)Cl)c1Cl`, the GI50 in [1] was 29 µM (inactive); in assay [2] it was 17.3 µM (inactive); in [3], 11.7 µM (inactive); in assay [4], 21.9 µM (inactive); in assay [5] it was 31.7 µM (inactive); in assay [6], 9.33 µM (inactive). The GI50 was 12.3 µM (inactive) in assay [7]; 22.2 µM (inactive) in [8]; 28.6 µM (inactive) in assay [9]; 23.8 µM (inactive) in [10]; 22.4 µM (inactive) in assay [11]; 15.8 µM (inactive) in assay [12]. The GI50 in [13] is 10.7 µM (inactive); in assay [14], 5.58 µM (inactive); in [15], 60.5 µM (inactive); in assay [16], 22.4 µM (inactive); in assay [17], 28.4 µM (inactive).

Take `Cc1ccccc1NC(=O)C(=O)Cc1cnc2ccccc2n1`: the GI50 in assay [1], in assay [2], in assay [3], in [4], in [5] and in assay [6] was > 100 µM (inactive) in each case. For the same compound, the GI50 in [7], in assay [8], in [9], in assay [10], in assay [11] and in assay [12] was > 100 µM (inactive) each time. Besides, the GI50 in assay [13], in assay [14], in assay [15], in assay [16] and in [17] was > 100 µM (inactive) throughout.

Consider `C[C@]12CCC(=O)C=C1CC[C@@H]1C2CC[C@]2(C)c3nn(-c4ccc(F)cc4)nc3CC12` (some centres undefined), for which the GI50 in [1] is > 100 µM (inactive); in assay [2], > 100 µM (inactive); in [3], 49.8 µM (inactive); in [4] it was > 100 µM (inactive); in assay [5], 50.4 µM (inactive); in assay [6], > 100 µM (inactive). Also, the GI50 in [7], in assay [8], in assay [9], in [10], in [11] and in [12] was > 100 µM (inactive) each time. The GI50 in [13], in assay [14], in assay [15], in [16] and in assay [17] was > 100 µM (inactive) in each case.

On to `CCOC(=O)NC(Nc1cccc(F)c1)(C(F)(F)F)C(F)(F)F`, for which the GI50 in assay [1] is > 100 µM (inactive); in assay [2], > 100 µM (inactive); in assay [3], > 100 µM (inactive); in assay [4], > 100 µM (inactive); in assay [5] it was > 100 µM (inactive); in [6], 48.4 µM (inactive). Besides, the GI50 in assay [7], in [8], in assay [9], in [10], in assay [11] and in assay [12] was > 100 µM (inactive) in each case. Also, the GI50 in assay [13] is > 100 µM (inactive); in assay [14], 4.94 µM (inactive); in [15] it was > 100 µM (inactive); in assay [16], > 100 µM (inactive); in assay [17] it was > 100 µM (inactive).

For `Cc1ccc2ccc(O)cc2c1`, the GI50 was 46.5 µM (inactive) in assay [1]; 68.9 µM (inactive) in assay [2]; 37.2 µM (inactive) in [3]; 20.1 µM (inactive) in assay [4]; 76.2 µM (inactive) in assay [5]; 20.2 µM (inactive) in assay [6]. Moreover, the GI50 in assay [7] is 38.1 µM (inactive); in [8] it was 48.2 µM (inactive); in assay [9], 26.9 µM (inactive); in [10], 94.6 µM (inactive); in [11], 18.2 µM (inactive); in assay [12] it was 43.4 µM (inactive). Further, the GI50 in assay [13] was 26.7 µM (inactive); in assay [14], 23 µM (inactive); in assay [15], 38.4 µM (inactive); in assay [16] it was 30 µM (inactive); in assay [17], 21.1 µM (inactive).

Take `CCN(CC)C(=S)/N=C(\SC(=S)N(CC)CC)c1ccccc1`: the GI50 in assay [1] is 37.5 µM (inactive); in assay [2], 14.6 µM (inactive); in assay [3] it was > 95.3 µM (inactive); in assay [4] it was 15.7 µM (inactive); in assay [5] it was > 65 µM (inactive); in assay [6], 1.29 µM (inactive). In addition, the GI50 in [7] is 26.9 µM (inactive); in assay [8], 22.4 µM (inactive); in assay [9], 47.3 µM (inactive); in assay [10], 48.6 µM (inactive); in [11] it was 57.1 µM (inactive); in assay [12], 38.5 µM (inactive). In addition, the GI50 in assay [13] is > 60.4 µM (inactive); in assay [14], 27 µM (inactive); in assay [15], 51.4 µM (inactive); in assay [16] it was 5.65 µM (inactive); in [17], 26.9 µM (inactive).

Turning to `COc1cccc2c1C(=O)c1c(O)c3c(c(O)c1C2=O)C[C@@](O)(C(C)=O)CC3OC1CC(OC2CC(N)C(O)C(C)O2)C(O)C(C)O1` (some centres undefined), the GI50 was 61.7 µM (inactive) in assay [1]; 29.4 µM (inactive) in assay [2]; > 100 µM (inactive) in assay [3]; 68.1 µM (inactive) in assay [4]; 32.5 µM (inactive) in [5]; 19.6 µM (inactive) in [6]. Besides, the GI50 in assay [7] is > 100 µM (inactive); in [8], 38.1 µM (inactive); in [9], 51.9 µM (inactive); in assay [10], 36.9 µM (inactive); in [11], 54.6 µM (inactive); in assay [12], > 100 µM (inactive). The GI50 in assay [13] was 32.5 µM (inactive); in assay [14], 45.5 µM (inactive); in assay [15], 25.1 µM (inactive); in assay [16], > 64.9 µM (inactive); in [17], 48.6 µM (inactive).

For `O=Cc1cc2c(o1)C(=O)c1ccccc1C2=O`, the GI50 in assay [1] is 0.192 µM (active); in assay [2] it was 0.312 µM (active); in assay [3], 4.78 µM (inactive); in assay [4], 0.192 µM (active); in [5] it was 1.25 µM (inactive); in [6] it was 1.46 µM (inactive). For the same compound, the GI50 was 2.84 µM (inactive) in assay [7]; 0.153 µM (active) in assay [8]; 2.85 µM (inactive) in assay [9]; 0.279 µM (active) in [10]; 1.88 µM (inactive) in assay [11]; 2.58 µM (inactive) in assay [12]. Also, the GI50 was 0.757 µM (active) in assay [13]; 1.42 µM (inactive) in assay [14]; 0.427 µM (active) in assay [15]; 3.07 µM (inactive) in assay [16]; 2.53 µM (inactive) in assay [17].
